Data reported in the NIST ThermoML archive (doi:10.1016/j.tca.2015.10.014).

Conditions: Crystal, Calculated from knudsen effusion weight loss

[Br-].[Br-].[Pb+2] [lead(II) bromide]
Conditions | vapor or sublimation pressure [kPa]
532.3 K | 7e-06
533 K | 8e-06
533.1 K | 8e-06
553.2 K | 3.6e-05
553.7 K | 2.6e-05
553.9 K | 2.7e-05
571.5 K | 6.1e-05
572.5 K | 7.8e-05
573.7 K | 7.5e-05
590.8 K | 0.000233
591.9 K | 0.000178
592.6 K | 0.0002
611.3 K | 0.000418
611.5 K | 0.000573
612.9 K | 0.000512
632.7 K | 0.000886
633.5 K | 0.001153
633.9 K | 0.001334
